Key:
Assay in all cases: relative viability (nuclei count vs DMSO), 5 days (fraction); higher = more cells survive
Ibrutinib + AZD7762 = compound: C=CC(=O)N1CCC[C@@H](n2nc(-c3ccc(Oc4ccccc4)cc3)c3c(N)ncnc32)C1 [Ibrutinib] + NC(=O)Nc1cc(-c2cccc(F)c2)sc1C(=O)N[C@H]1CCCNC1 [AZD7762] (partner 0.2 µM)
Procedure, shortened: (§1)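 Lung cancer cell lines, seeded in 1536-well plates, were treated the following day by pin tool with a single drug or with five library-drug doses (not always all listed) in √10 steps on top of a fixed anchor-drug dose. Cells were fixed and nuclei stained in one step after 5 days, and nuclei were counted. Relative viability is the nuclei count for treated wells divided by that for vehicle wells, reported as medians of duplicate plates.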

Ibrutinib + Pemetrexed = compound: C=CC(=O)N1CCC[C@@H](n2nc(-c3ccc(Oc4ccccc4)cc3)c3c(N)ncnc32)C1 [Ibrutinib] + Nc1nc2[nH]cc(CCc3ccc(C(=O)N[C@@H](CCC(=O)O)C(=O)O)cc3)c2c(=O)[nH]1 [Pemetrexed] (partner 0.2 µM)
Procedure, shortened: as §1

BMX-IN-1 + Linsitinib = compound: C=CC(=O)Nc1cc(-n2c(=O)ccc3cnc4ccc(-c5ccc(NS(C)(=O)=O)cc5)cc4c32)ccc1C [BMX-IN-1] + C[C@]1(O)C[C@@H](c2nc(-c3ccc4ccc(-c5ccccc5)nc4c3)c3c(N)nccn32)C1 [Linsitinib] (partner 1 µM)
Procedure, shortened: as §1

PAC-1 + Trametinib = compound: C=CCc1cccc(/C=N/NC(=O)CN2CCN(Cc3ccccc3)CC2)c1O [PAC-1] + CC(=O)Nc1cccc(-n2c(=O)n(C3CC3)c(=O)c3c(Nc4ccc(I)cc4F)n(C)c(=O)c(C)c32)c1 [Trametinib] (partner 0.02 µM)
Procedure, shortened: as §1

Cell Line	relative viability (Ibrutinib + AZD7762; first compound 0.005 µM)	relative viability (Ibrutinib + AZD7762; first compound 0.01581 µM)	relative viability (Ibrutinib + AZD7762; first compound 0.05 µM)	relative viability (Ibrutinib + AZD7762; first compound 0.1581 µM)	relative viability (Ibrutinib + AZD7762; first compound 0.5 µM)	relative viability (Ibrutinib + Pemetrexed; first compound 0.005 µM)	relative viability (Ibrutinib + Pemetrexed; first compound 0.01581 µM)	relative viability (Ibrutinib + Pemetrexed; first compound 0.05 µM)	relative viability (Ibrutinib + Pemetrexed; first compound 0.1581 µM)	relative viability (Ibrutinib + Pemetrexed; first compound 0.5 µM)	relative viability (BMX-IN-1 + Linsitinib; first compound 0.02 µM)	relative viability (BMX-IN-1 + Linsitinib; first compound 0.2 µM)	relative viability (BMX-IN-1 + Linsitinib; first compound 0.6325 µM)	relative viability (BMX-IN-1 + Linsitinib; first compound 2 µM)	relative viability (PAC-1 + Trametinib; first compound 0.02 µM)	relative viability (PAC-1 + Trametinib; first compound 0.06325 µM)	relative viability (PAC-1 + Trametinib; first compound 0.2 µM)	relative viability (PAC-1 + Trametinib; first compound 2 µM)
201T	0.539	0.583	0.623	0.66	0.553	0.296	0.301	0.363	0.363	0.507	1.13	1.02	1.04	1.01	0.732	0.717	0.687	0.717
A549											0.627	0.973	0.808	0.552				
A-427	0.745	0.734	0.757		0.706	0.986	0.995	0.961		1.02	1.19	1.09	1.14	1.12	0.767	0.778	0.817	0.796
ABC-1	0.904	0.863	0.807	0.759	0.695						0.993	0.807	0.775	0.764				
BEN	0.473	0.61	0.637	0.506	0.697	0.489	0.757	0.637	0.469	0.785	1.08	1.13	0.995	0.942	1.08	1.09	1.17	0.923
CAL-12T	0.701	0.69	0.544	0.616	0.766	1.26	1.19	1.12	1.26	1.27	0.849	0.811	0.932	1.01	0.329	0.359	0.353	0.386
COR-L23						0.211	0.179	0.204	0.198	0.235	1.62	1.11	0.994	1.01	0.586	0.66		0.673
COR-L 105						0.778	1.16	0.855	1.06	0.692	0.801	0.875	1.01	0.877	0.436	0.453	0.47	0.355
Calu-6											1.05	0.984	0.998	1.03				
ChaGo-K-1	0.85	0.798	0.894	0.833	0.838	0.254	0.263	0.264	0.261	0.271					0.951	0.917	0.837	0.94
EBC-1											1.08	0.802	0.983	1.04				
EKVX	0.75	0.61	0.605	0.732	0.246	0.33	0.419	0.359	0.336	0.222	1.14	1.17	1.13	1.02	0.369	0.314	0.314	0.35
EMC-BAC-2	1.19	1.1	1.1		1.2	0.527	0.449	0.541		0.714	0.916	0.782	0.84	0.802	1.07	0.925	0.913	0.849
EPLC-272H		0.232	0.269	0.241	0.191	0.317	0.325	0.412	0.268	0.344	1.19	1.35	1.42	1.01	0.251	0.322	0.301	0.28
H3255	0.695	0.767	0.61	0.754	0.418	0.511	0.553	0.456	0.557	0.407	1.07	1.01	0.965	0.912	0.713	0.746	0.587	0.512
HARA	0.495	0.449	0.602	0.318	0.408	0.243	0.22	0.249	0.207	0.242	1.2	1.21	0.851	0.886	0.632	0.697	0.621	0.473
HCC-15	1.33	1.25	1.19	1.25	1.4	0.238	0.223	0.238	0.235	0.322	0.918	0.984	0.899	0.821	0.373	0.38	0.419	0.41
HCC-44	1.11				1.07	0.711	0.669	0.624	0.64	0.987	0.804	0.735	0.702	0.642	1.05	1.08	1.07	1.02
HCC-78		0.732	0.251	0.452	0.592		0.84	0.892	0.879	0.93	0.572	0.571	0.582	0.643	0.725	0.725	0.849	0.782
HCC-366	0.329	0.233	0.247	0.347	0.303	0.259	0.247	0.307	0.241	0.704	0.779	0.995	0.736	0.601	0.339	0.318	0.312	0.365
HCC-827	0.157	0.193	0.323	0.167	0.12	0.22	0.248	0.24	0.246	0.168	1.05	1.01	0.999	0.969	0.505	0.569	0.528	0.536
HOP-62	0.53	0.662	0.651	0.867	0.626	0.415	0.32	0.434	0.446	0.879	0.959	1	1.02	0.947	0.387	0.404	0.388	0.406
